# In ChEMBL document CHEMBL1671732, “No evidence for induction of ABC transporters in peripheral blood mononuclear cells in humans after 14 days of efavirenz treatment” (Antimicrob Agents Chemother, 2010):
# Columns and labels:
# [1] = Half life in healthy human plasma at 400 mg, po measured on day 1 post dose by liquid chromatography-tandem mass spectrometry; assay type: ADME, organism-based
# [2] = Apparent oral clearance in healthy human plasma at 400 mg, po qd for 14 days by liquid chromatography-tandem mass spectrometry; assay type: ADME, organism-based
# Homo sapiens [3] = assay: Volume of distribution in healthy human plasma at 400 mg, po qd for 14 days by liquid chromatography-tandem mass spectrometry; assay type: ADME, organism-based; settings: in vivo, 336 h
# [4] = Apparent oral clearance in healthy human plasma at 400 mg, po measured on day 1 post dose by liquid chromatography-tandem mass spectrometry; assay type: ADME, organism-based
# Homo sapiens [5] = assay: Volume of distribution in healthy human plasma at 400 mg, po measured on day 1 post dose by liquid chromatography-tandem mass spectrometry; assay type: ADME, organism-based; settings: in vivo
# [6] = Tmax in healthy human plasma at 400 mg, po measured on day 1 post dose by liquid chromatography-tandem mass spectrometry; assay type: ADME, organism-based
# [7] = Tmax in healthy human plasma at 400 mg, po qd for 14 days by liquid chromatography-tandem mass spectrometry; assay type: ADME, organism-based
# [8] = Cmax in healthy human plasma at 400 mg, po measured on day 1 post dose by liquid chromatography-tandem mass spectrometry; assay type: ADME, organism-based; design: dose 400 mg, route oral
# [9] = Cmax in healthy human plasma at 400 mg, po qd for 14 days by liquid chromatography-tandem mass spectrometry; assay type: ADME, organism-based; design: dose 400 mg, route oral
# [10] = Half life in healthy human plasma at 400 mg, po qd for 14 days by liquid chromatography-tandem mass spectrometry; assay type: ADME, organism-based
# [11] = Ratio of drug concentration in PBMCs to plasma of healthy human administered at 400 mg, po measured after 24 hrs on day 1 post dose; assay type: ADME, organism-based, PBMC
# [12] = Ratio of drug concentration in PBMCs to plasma of healthy human administered at 400 mg, po measured after 5 hrs on day 1 post dose; assay type: ADME, organism-based, PBMC
# [13] = Ratio of drug concentration in PBMCs to plasma of healthy human administered at 400 mg, po qd for 14 days measured after 5 hrs post last dose; assay type: ADME, organism-based, PBMC
# [14] = Drug concentration in PBMCs of healthy human at 400 mg, po measured after 5 hrs on day 1 post dose by liquid chromatography-tandem mass spectrometry; assay type: ADME, organism-based, PBMC; settings: read-out: Drug uptake
# [15] = Drug concentration in PBMCs of healthy human at 400 mg, po ad for 14 days measured after 5 hrs post last dose by liquid chromatography-tandem mass spectrometry; assay type: ADME, organism-based, PBMC; settings: read-out: Drug uptake
# [16] = Drug concentration in PBMCs of healthy human at 400 mg, po measured after 24 hrs on day 1 post dose by liquid chromatography-tandem mass spectrometry; assay type: ADME, organism-based, PBMC; settings: read-out: Drug uptake
# [17] = Drug concentration in PBMCs of healthy human at 400 mg, po ad for 14 days measured after 24 hrs post last dose by liquid chromatography-tandem mass spectrometry; assay type: ADME, organism-based, PBMC; settings: read-out: Drug uptake
# Plasma [18] = assay: Fraction unbound in healthy human plasma at 400 mg, po measured on day 1 post dose by liquid chromatography-tandem mass spectrometry; assay type: ADME, organism-based; settings: in vivo
# Plasma [19] = assay: Fraction unbound in healthy human plasma at 400 mg, po qd for 14 days by liquid chromatography-tandem mass spectrometry; assay type: ADME, organism-based; settings: in vivo, 336 h
# Homo sapiens [20] = assay: Reduction in ABCB1 mRNA expression in healthy human at 400 mg, po qd for 14 days by RT-PCR; assay type: ADME, organism-based; settings: in vivo, 336 h
# Homo sapiens [21] = assay: Reduction in ABCC1 mRNA expression in healthy human at 400 mg, po qd for 14 days by RT-PCR; assay type: ADME, organism-based; settings: in vivo, 336 h
# Homo sapiens [22] = assay: Reduction in ABCC2 mRNA expression in healthy human at 400 mg, po qd for 14 days by RT-PCR; assay type: ADME, organism-based; settings: in vivo, 336 h
# Homo sapiens [23] = assay: Effect on P-gp activity in PBMCs isolated from healthy human receiving compound dose at 400 mg, po qd for 14 days by rhodamine -123 efflux assay; assay type: ADME, organism-based; settings: in vivo, 336 h
# [24] = Ratio of drug concentration in PBMCs to plasma of healthy human administered at 400 mg, po qd for 14 days measured after 24 hrs post last dose; assay type: ADME, organism-based, PBMC
smiles,measurement,setting,value
O=C1Nc2ccc(Cl)cc2[C@@](C#CC2CC2)(C(F)(F)F)O1 [EFAVIRENZ],half-life,[1],78.7 h
same,CL/F,[2],148 mL/min
same,Vd,Homo sapiens [3],401.6 L
same,CL/F,[4],70.7 mL/min
same,Vd,Homo sapiens [5],462.8 L
same,Tmax,[6],2.3 h
same,Tmax,[7],2.2 h
same,Cmax,[8],2740 ng/mL
same,Cmax,[9],3760 ng/mL
same,half-life,[10],33 h
same,Kp at 24 h,[11],1.53
same,Kp at 5 h,[12],1.63
same,Kp at 5 h,[13],1.76
same,concentration at 5 h,[14],1470 ng/mL
same,concentration at 5 h,[15],3600 ng/mL
same,concentration at 24 h,[16],974 ng/mL
same,concentration at 24 h,[17],2030 ng/mL
same,Fu,Plasma [18],0.47%
same,Fu,Plasma [19],0.52%
same,Activity,Homo sapiens [20],Non-toxic
same,Activity,Homo sapiens [21],Non-toxic
same,Activity,Homo sapiens [22],Non-toxic
same,Activity,Homo sapiens [23],Non-toxic
same,Kp at 24 h,[24],1.36
